Test results: patent publication US8481526B2, “Fluoroquinolone carboxylic acid molecular crystals” (Bausch & Lomb Incorporated, priority 2009, dated 2013)
Counter-ions that a name gives are not always drawn.

How the values were obtained:
Type in all cases: physicochemical
[1] = XRPD of excess solids isolated from equilibrated solubility samples (form conversion); conditions: for Form conversion in aqueous media: pH>4
Experimental: Approximately 20-100 mg of powder was loaded onto a low background sample holder. Samples were analyzed on a Rigaku Miniflex (scanning configuration) and scanned from 5-60°, 2-theta at a rate of 1°2θ/minute with a sampling rate of 0.02 seconds. Patterns were analyzed using Jade software version 7.5, provided by Materials Data Inc.
Excess solids were isolated from equilibrated samples and analyzed by XRPD. […] As discussed below (XRPD section), this phase was identified as the crystalline besifloxacin free base.

[2] = Equilibrium solubility in various solvents (HPLC); conditions: Water, 22° C. ± 2° C.
Experimental: (§1) A reversed phase gradient HPLC method was used for the analysis of besifloxacin solubility samples. The conditions are listed below:
The solubility of besifloxacin HCl was evaluated in several organic solvents. An excess of drug substance was equilibrated with 10 mL of each solvent for 24-48 hours at room temperature (24±3° C.) using either a small magnetic stirrer or a Burrell Wrist Action shaker. Samples were inspected visually, and if needed, more drug substance was added until excess solid persisted after stirring. The samples were then filtered through 0.45 μm Nylon or PVDF filters or centrifuged at 10,000 RPM for 15 minutes. The filtrate or the supernatant was diluted as needed using the HPLC diluent and analyzed by HPLC. When solubility was greater than 100 mg/mL, no attempt was made to determine the equilibrium solubility and the compound was described as “freely soluble” as per the USP definition.
(§2) The solubility of besifloxacin HCl, lot 050956330, was determined in distilled water as a function of pH by adjusting the pH with 1 N NaOH. Suspensions of the drug substance (about 50-150 mg in 10 mL distilled water) were equilibrated for 72-96 hours using a Burrell shaker. Laboratory temperature was 22±2° C. The pH of the suspensions was measured in the presence of excess solid prior to sampling. The samples were centrifuged in an Enprotech ISS-I13 centrifuge at 10,000 RPM for 15 minutes or filtered through 0.45[…] or PVDF filters. When samples were filtered, a volume of filtrate was discarded to allow saturation of filters. The supernatant or the filtrate was diluted as needed using the HPLC diluent prior to analysis. Sample concentration was monitored at varying time intervals to ensure complete equilibration. Also, sample concentration was reported as besifloxacin free base concentration rather than HCl salt.

[3] = Equilibrium solubility in various solvents (HPLC); conditions: 22° C. ± 2° C.; for solubility: solubility of free base
[4] = Moisture sorption analysis (VTI moisture sorption balance); conditions: 25° C., 10% to 90% RH; listed as Besifloxacin HCl
Experimental: Moisture uptake and loss was monitored as a function of relative humidity using a VTI, moisture sorption balance. A 30-40 mg sample was loaded into a tared glass sample holder. The initial weight of the sample was accurately recorded. The sample was then dried under a steady stream of nitrogen for 2 hours at 40° C. After initial drying, the sample mass was equilibrated with dry nitrogen at 25° C. and the sample was exposed to progressive stepwise increases in humidity under controlled conditions. The sample was equilibrated for two hours at each new relative humidity. The moisture sorption behavior was monitored at 10% to 90% RH in 10% RH intervals and desorption was monitored from 90% to 10% RH. The % moisture gain/loss was recorded vs. the % RH.

[5] = pH-dependence of solubility in distilled water (HPLC); conditions: distilled water, aqueous buffer, thermodynamic from solid, water, 22° C. ± 2° C., reported as free base concentration, read-out: Solubility
Experimental: as §1, §2

N[C@@H]1CCCCN(c2c(F)cc3c(=O)c(C(=O)O)cn(C4CC4)c3c2Cl)C1 [besifloxacin HCl salt]
Form conversion in aqueous media [1]: dissolve and precipitate in a different crystalline form | Form conversion in aqueous media ([1]; listed as besifloxacin HCl): convert in aqueous media (pH>4) to a new crystalline phase | Form conversion of excess solid ([1]; aqueous pH solubility samples, pHs>3.5-4.0): converted to a different crystalline phase | Form conversion of excess solid ([1]; equilibrated in organic solvents): no form conversions were observed | USP def ([2]; listed as Besifloxacin HCL salt): sparingly soluble | USP def ([2]; listed as Besifloxacin HCl salt): sparingly soluble | solubility ([2]; saturated solution pH 3.6 (HCl salt), 8.1 (free base), solubility of free base): 10635 µg/mL | USP def ([3]; Acetonitrile): Insoluble | USP def ([3]; Acetonitrile, listed as Besifloxacin HCL salt): insoluble | USP def ([3]; Acetonitrile, listed as Besifloxacin HCl salt): insoluble | solubility ([3]; Acetonitrile): 12 µg/mL | USP def ([3]; Ethanol): slightly soluble | USP def ([3]; Ethanol, listed as Besifloxacin HCL salt): slightly soluble | USP def ([3]; Ethanol, listed as Besifloxacin HCl salt): slightly soluble | solubility ([3]; Ethanol): 1122 µg/mL | USP def ([3]; Isopropanol): Insoluble | USP def ([3]; Isopropanol, listed as Besifloxacin HCL salt): insoluble | USP def ([3]; Isopropanol, listed as Besifloxacin HCl salt): insoluble | solubility ([3]; Isopropanol): 89 µg/mL | USP def ([3]; Methanol): slightly soluble | USP def ([3]; Methanol, listed as Besifloxacin HCL salt): slightly soluble | USP def ([3]; Methanol, listed as Besifloxacin HCl salt): slightly soluble | solubility ([3]; Methanol): 9898 µg/mL | USP def ([3]; Water): sparingly | Hygroscopicity / moisture sorption behaviour [4]: not hygroscopic | solubility ([5]; pH 3.54): 10600 µg/mL | solubility ([5]; pH 3.58): 10200 µg/mL | solubility ([5]; pH 3.72): 10300 µg/mL | solubility ([5]; pH 3.95): 4180 µg/mL | solubility ([5]; pH 4.58): 710 µg/mL | solubility ([5]; pH 4.87): 590 µg/mL | solubility ([5]; pH 5.15): 240 µg/mL | solubility ([5]; pH 5.17): 270 µg/mL | solubility ([5]; pH 5.43): 220 µg/mL | solubility ([5]; pH 5.95): 120 µg/mL | solubility ([5]; pH 6.31): 100 µg/mL | solubility ([5]; pH 6.45): 100 µg/mL | solubility ([5]; pH 6.49): 80 µg/mL | solubility ([5]; pH 6.72): 80 µg/mL | solubility ([5]; pH 8.14): 80 µg/mL | solubility ([5]; pH 9.11): 80 µg/mL | solubility ([5]; pH 9.59): 100 µg/mL | solubility ([5]; pH 9.63): 100 µg/mL | solubility ([5]; pH 10.37): 270 µg/mL | solubility ([5]; pH 10.85): 850 µg/mL
